Reference: article PMC12196494, “Application of Solvent Evaporation to Generate Supersaturated Lipid-Based Formulations: Investigation of Drug Load and Formulation Quality” (Pharmaceutics, 2025)
In brackets after ≈: the same amount, converted by molar mass. Read-outs that look alike come from different tables or passages of the source. Blank lines part the entries; values can stand above or below the compound they belong to.

Columns and labels:
[1] = cited from earlier work
[2] = MCT and LCM formulations, polarized light, Figure 1A-D
Source text: For selected samples where precipitation was visible, a few droplets (enough volume to cover the area of a quartz microscope slide covered by a cover slip) were taken from the middle of the vial using a plastic pipette, and the crystallinity was confirmed by using a ZEISS Axio Vert.A1 microscope with polarized light function (Jena, Germany).

[3] = for Stability: celecoxib in LCM
[4] = cited from earlier work; for Drug load, % of the equilibrium solubility at 37 °C: supersaturated type I and type II LBFs
[5] = Solubility studies in lipid-based formulations (MCT, LCM) at different temperatures; format: physicochemical; conditions: for solubility: oil or lipid, thermodynamic from solid, n = 3, mean ± SD
Procedure: In the case that the added compound was dissolved during incubation, more compound was added. After incubation, the samples were centrifuged in an Eppendorf centrifuge 5430R (Hamburg, Germany) for 30 min at 17,500 rpm (=30,130 rcf) at either 20 °C (samples incubated at ambient temperature), 37 °C (samples incubated at 37 °C), or 40 °C (samples incubated at 60 °C). The supernatant was diluted and further analyzed by UPLC-UV, as described below.
The supernatants obtained from the solubility studies were diluted 1:50 with tetrahydrofuran, which was further diluted 1:100 with acetonitrile. […] This final dilution was analyzed by using an Acquity (UPLC™) H-class system composed of a quaternity solvent manager, a photodiode array (PDA) detector, a sample manager, and the Empower® software (version 3.0) for data processing. For the chromatographic analysis, a reversed-phase Waters Acquity BEH C18 with a 50 mm × 2.1 mm column (particle size 1.7 μm) including a precolumn (Waters Acquity BEH C18, 5 mm * 2.1 mm, particle size 1.7 μm) (Waters, Milford, CT, USA) was used.
The statistical analysis was performed using GraphPad Prism, Version 9.5.1.

[6] = tested on: hamsters; parameters: method as in PMID 33387565; conditions: doses of 1000–4000 ppm DCM; cited from earlier work
[7] = tested on: rats; parameters: method as in PMID 33387565; conditions: doses of 1000–4000 ppm DCM; cited from earlier work
[8] = tested on: mice; parameters: method as in PMID 33387565; conditions: doses of 1000–4000 ppm DCM; cited from earlier work

Solid state of the precipitate from the formulations [2]: crystalline
Stability ([3]; DCM 1 + 2, stored at ambient): 7 to 14 days
Stability ([3]; DCM 1 + 4, stored at ambient, n = 1): 7 to 14 days
Drug load relative to the solubility at ambient temperature ([3]; solvent-based approach, DCM evaporation): up to 475%
Ratio of solubility 60 °C/Ambient temperature ([5]; LCM): 2.38 ± 0.04
Ratio of solubility 60 °C/Ambient temperature ([5]; MCT): 1.85 ± 0.03
solubility ([5]; long-chain monoglyceride (Maisine CC), Maisine CC, 37 °C, read-out: Solubility LCM): 15.57 ± 0.09 mg/mL (≈ 40.8 mM)
solubility ([5]; long-chain monoglyceride (Maisine CC), Maisine CC, 60 °C, read-out: Solubility LCM): 24.6 ± 0.36 mg/mL (≈ 64.4 mM)
solubility ([5]; long-chain monoglyceride (Maisine CC), Maisine CC, ambient temperature (~21 °C), read-out: Solubility LCM): 10.34 ± 0.08 mg/mL (≈ 27.1 mM)
solubility ([5]; medium-chain triglyceride (Labrafac Lipophile WL1349), medium-chain triglyceride, 37 °C, read-out: Solubility MCT): 11.3 ± 0.05 mg/mL (≈ 29.6 mM)
solubility ([5]; medium-chain triglyceride (Labrafac Lipophile WL1349), medium-chain triglyceride, 60 °C, read-out: Solubility MCT): 14.3 ± 0.25 mg/mL (≈ 37.5 mM)
solubility ([5]; medium-chain triglyceride (Labrafac Lipophile WL1349), medium-chain triglyceride, ambient temperature (~21 °C), read-out: Solubility MCT): 7.72 ± 0.16 mg/mL (≈ 20.2 mM)
Supersaturation ratio between 60 °C and ambient temperature ([5]; range over MCT and LCM): 1.85–2.38
Drug load relative to the solubility at ambient temperature ([5]; supersaturation induced by heat (60 °C)): 238%
SMILES: Cc1ccc(-c2cc(C(F)(F)F)nn2-c2ccc(S(N)(=O)=O)cc2)cc1 [Celecoxib, celecoxib]
log P [1]: 4.3
Precipitation ([3]; celecoxib content of 371% or higher, both vehicles, stored at ambient): visible precipitation already within a timeframe of a few days
Time to precipitation ([4]; heat-induced supersaturated type I and type II LBFs, in most cases): ≤ 14 days
Drug load, % of the equilibrium solubility at 37 °C [4]: ≤ 136%

SMILES: ClCCl [DCM, dichloromethane]
Risk for malignant tumors [6]: not in rats and hamsters
Risk for malignant tumors [7]: not in rats and hamsters
Risk for malignant tumors [8]: increased risk for malignant tumors

SMILES: CC(C)OC(=O)C(C)(C)Oc1ccc(C(=O)c2ccc(Cl)cc2)cc1 [Fenofibrate, fenofibrate]
Time of storage to crystallization ([4]; heat-induced supersaturated LBF of MCT and phospholipids, prepared at 65 °C, stored at 20–23 °C): nine weeks

SMILES: C(=C\c1ccccc1)/CN1CCN(C(c2ccccc2)c2ccccc2)CC1 [cinnarizine]
Drug load, % of the equilibrium solubility at 37 °C [4]: up to 138%

SMILES: CC(C)Cc1ccc(C(C)C(=O)O)cc1 (stereo not drawn) [ibuprofen]
Time stable ([4]; some ibuprofen-loaded solid LBFs): up to 9 months
